Columns and labels:
[1] = Porcine drug elution PK study of dual drug eluting coating; type: in vivo; settings: after 8 days of implantation, FIG. 11 stent (sirolimus + cilostazol in one EVA/BMA layer, 100 μg BMA overcoat)
Excerpt: Another critical parameter for the performance of the thrombus resistance of a device coated with cilostazol is the duration of the drug release from the coating. This is of particular significance in the two weeks after device implantation. In the porcine drug elution PK studies of the dual drug eluting coating, both cilostazol and sirolius were slowly released from the coating, resulting in a sustained drug release profile. The purpose of the porcine PK study is to assess the local pharmacokinetics of a drug eluting stent at a given implantation time. Normally three stents are implanted in three different coronary arteries in a pig for a given time point and then retrieved for total drug recovery analysis. The stents are retrieved at predetermined time points; namely, 1, 3 and 8 days. The stents are extracted and the total amount of drug remaining on the stents is determined by analysis utilizing HPLC (high performance liquid chromatography) for total drug amount. The difference between the original amount of drug on the stent and the amount of drug retrieved at a given time represents the amount of drug released in that period. The continuous release of drug into surrounding arterial tissue is what prevents the neointimal growth and restenosis in the coronary artery. A normal plot represents the percentage of total drug released (%, y-axis) vs. time of implantation (day, x-axis). […]

[2] = In vitro release kinetics of sirolimus and cilostazol from coated stents; type: physicochemical
[3] = Cumulative in vivo drug release from reservoir dual drug eluting stent; settings: 30 days; compared to cilostazol
Excerpt: Referring to FIG. 29, there is illustrated the cumulative in vivo drug release percentages for each drug over a thirty day period. Curve 2902 represents the profile for cilostazol while curve 2904 represents the profile for sirolimus. FIG. 30 is a graphical representation of the amount of each drug, in micrograms, released in vivo. Curve 3002 represents the profile for cilostazol while curve 3004 represents the profile for sirolimus. The curves in the figures illustrate that both the drugs elute independently of each other with minimal or substantially no interaction. […] Since the amount of drug (by weight) is different for the drugs in their respective reservoirs, the total amount of drug released at thirty (30) days was higher for sirolimus as compared to cilostazol.

total amount of drug released (by weight) [3]	SMILES	drug remained in the drug coating [1]	in vitro drug release rate ([2]; 200 μg BMA diffusion overcoat (FIG. 4) versus 100 μg (FIG. 6))	in vitro release ([2]; FIG. 11 stent (sirolimus + cilostazol in one EVA/BMA layer, 100 μg BMA overcoat), FIG. 10)
	O=C1CCc2cc(OCCCCc3nnnn3C3CCCCC3)ccc2N1 [cilostazol, 6[4-(1-cyclohexyl-1H-tetrazol-5-yl)-butoxy]-3,4-dihydro-2-(1H)-quinolinone]	~80%	comparatively slower	~35%
higher	CO[C@H]1C[C@@H]2CC[C@@H](C)[C@@](O)(O2)C(=O)C(=O)N2CCCC[C@H]2C(=O)O[C@H]([C@H](C)C[C@@H]2CC[C@@H](O)[C@H](OC)C2)CC(=O)[C@H](C)/C=C(\C)[C@@H](O)[C@@H](OC)C(=O)[C@H](C)C[C@H](C)/C=C/C=C/C=C/1C [rapamycin]	~80%		

From patent US20100280600A1, “DUAL DRUG STENT” (priority 2009, published 2010)
